In ChEMBL document CHEMBL4699558, “Lead optimization of 8-(methylamino)-2-oxo-1,2-dihydroquinolines as bacterial type II topoisomerase inhibitors” (Bioorg Med Chem, 2020):
Converted amounts (≈) assume the structure as drawn.

Experiments:
DNA gyrase = DNA gyrase (Escherichia coli, UniProt P0AES4+P0AES6); experiment: Inhibition of Escherichia coli DNA gyrase by measuring supercoiling activity incubated for 60 mins by fluorescence based assay; format: protein-complex assay
Staphylococcus aureus [1] = experiment: Antibacterial activity against community-acquired Methicillin -resistant Staphylococcus aureus ATCC BAA-1556 by CLSI method; format: functional
Escherichia coli [2] = experiment: Antibacterial activity against Escherichia coli ATCC 25922 in presence of PAbetaN by CLSI method; format: functional
Escherichia coli [3] = experiment: Antibacterial activity against Escherichia coli ATCC 25922 by CLSI method; format: functional
Enterococcus faecium [4] = experiment: Antibacterial activity against Enterococcus faecium ATCC 35667 by CLSI method; format: functional
Enterococcus faecium [5] = experiment: Antibacterial activity against vancomycin-resistant Enterococcus faecium ATCC 51559 by CLSI method; format: functional
Staphylococcus aureus [6] = experiment: Antibacterial activity against Staphylococcus aureus ATCC 29213 by CLSI method; format: functional
[7] = Inhibition of Escherichia coli topoisomerase IV by measuring relaxation activity incubated for 30 mins by fluorescence based assay
Escherichia coli [8] = experiment: Potency index, ratio of MIC of 4-(8-(methylamino)-2-oxo-1,2-dihydroquinoline-3-carboxamido)benzoic acid to MIC of compound for antibacterial activity against Escherichia coli ATCC 25922; format: functional
[9] = biological target: DNA gyrase (Escherichia coli) (UniProt P0AES6+P0AES4); experiment: Potency index, ratio of IC50 of 4-(8-(methylamino)-2-oxo-1,2-dihydroquinoline-3-carboxamido)benzoic acid to IC50 of compound for inhibition of Escherichia coli DNA gyrase incubated for 60 mins by fluorescence based assay; format: protein-complex assay
Staphylococcus aureus [10] = experiment: Antibacterial activity against hospital-acquired Methicillin -resistant Staphylococcus aureus ATCC BAA-811 by CLSI method; format: functional
Streptococcus anginosus = experiment: Antibacterial activity against Streptococcus anginosus ATCC 33397 by CLSI method; format: functional
Haemophilus influenzae = experiment: Antibacterial activity against Haemophilus influenzae ATCC 43095 by CLSI method; format: functional
Enterococcus faecalis [11] = experiment: Antibacterial activity against Enterococcus faecalis ATCC 29212 by CLSI method; format: functional
Streptococcus pneumoniae [12] = experiment: Antibacterial activity against Streptococcus pneumoniae ATCC 49619 by CLSI method; format: functional
Enterococcus faecalis [13] = experiment: Antibacterial activity against vancomycin-resistant Enterococcus faecalis ATCC 51575 by CLSI method; format: functional
[14] = Cytotoxicity against human HepG2 cells assessed as reduction in cell viability at 10 uM incubated for 48 hrs by CCK-8 assay; details: HepG2 cells
[15] = Cmax in ICR mouse at 100 mg/kg, sc measured upto 24 hrs by LC-MS analysis; format: ADME, organism-based; parameters: route subcutaneous, dose 100 mg/kg, time 24 hrs; details: in vivo
Staphylococcus aureus [16] = experiment: Antibacterial activity against Methicillin-resistant Staphylococcus aureus by CLSI method; format: functional
Clostridioides difficile = experiment: Antibacterial activity against Clostridioides difficile ATCC 700057 by CLSI method; format: functional
[17] = Tmax in ICR mouse at 100 mg/kg, sc measured upto 24 hrs by LC-MS analysis; format: ADME, organism-based; details: in vivo
Enterococcus = experiment: Antibacterial activity against Vancomycin-resistant Enterococcus by CLSI method; format: functional
[18] = test system: Peptostreptococcus anaerobius; experiment: Antibacterial activity against Peptostreptococcus anaerobius ATCC 27337 by CLSI method; format: functional
[19] = test system: Prevotella melaninogenica; experiment: Antibacterial activity against Prevotella melaninogenica JCM6325 by CLSI method; format: functional
[20] = biological target: DNA topoisomerase 2-alpha (Homo sapiens, UniProt P11388); experiment: Inhibition of human topoisomerase 2alpha; format: ADME
Sequence of DNA topoisomerase 2-alpha (P11388 whole entry): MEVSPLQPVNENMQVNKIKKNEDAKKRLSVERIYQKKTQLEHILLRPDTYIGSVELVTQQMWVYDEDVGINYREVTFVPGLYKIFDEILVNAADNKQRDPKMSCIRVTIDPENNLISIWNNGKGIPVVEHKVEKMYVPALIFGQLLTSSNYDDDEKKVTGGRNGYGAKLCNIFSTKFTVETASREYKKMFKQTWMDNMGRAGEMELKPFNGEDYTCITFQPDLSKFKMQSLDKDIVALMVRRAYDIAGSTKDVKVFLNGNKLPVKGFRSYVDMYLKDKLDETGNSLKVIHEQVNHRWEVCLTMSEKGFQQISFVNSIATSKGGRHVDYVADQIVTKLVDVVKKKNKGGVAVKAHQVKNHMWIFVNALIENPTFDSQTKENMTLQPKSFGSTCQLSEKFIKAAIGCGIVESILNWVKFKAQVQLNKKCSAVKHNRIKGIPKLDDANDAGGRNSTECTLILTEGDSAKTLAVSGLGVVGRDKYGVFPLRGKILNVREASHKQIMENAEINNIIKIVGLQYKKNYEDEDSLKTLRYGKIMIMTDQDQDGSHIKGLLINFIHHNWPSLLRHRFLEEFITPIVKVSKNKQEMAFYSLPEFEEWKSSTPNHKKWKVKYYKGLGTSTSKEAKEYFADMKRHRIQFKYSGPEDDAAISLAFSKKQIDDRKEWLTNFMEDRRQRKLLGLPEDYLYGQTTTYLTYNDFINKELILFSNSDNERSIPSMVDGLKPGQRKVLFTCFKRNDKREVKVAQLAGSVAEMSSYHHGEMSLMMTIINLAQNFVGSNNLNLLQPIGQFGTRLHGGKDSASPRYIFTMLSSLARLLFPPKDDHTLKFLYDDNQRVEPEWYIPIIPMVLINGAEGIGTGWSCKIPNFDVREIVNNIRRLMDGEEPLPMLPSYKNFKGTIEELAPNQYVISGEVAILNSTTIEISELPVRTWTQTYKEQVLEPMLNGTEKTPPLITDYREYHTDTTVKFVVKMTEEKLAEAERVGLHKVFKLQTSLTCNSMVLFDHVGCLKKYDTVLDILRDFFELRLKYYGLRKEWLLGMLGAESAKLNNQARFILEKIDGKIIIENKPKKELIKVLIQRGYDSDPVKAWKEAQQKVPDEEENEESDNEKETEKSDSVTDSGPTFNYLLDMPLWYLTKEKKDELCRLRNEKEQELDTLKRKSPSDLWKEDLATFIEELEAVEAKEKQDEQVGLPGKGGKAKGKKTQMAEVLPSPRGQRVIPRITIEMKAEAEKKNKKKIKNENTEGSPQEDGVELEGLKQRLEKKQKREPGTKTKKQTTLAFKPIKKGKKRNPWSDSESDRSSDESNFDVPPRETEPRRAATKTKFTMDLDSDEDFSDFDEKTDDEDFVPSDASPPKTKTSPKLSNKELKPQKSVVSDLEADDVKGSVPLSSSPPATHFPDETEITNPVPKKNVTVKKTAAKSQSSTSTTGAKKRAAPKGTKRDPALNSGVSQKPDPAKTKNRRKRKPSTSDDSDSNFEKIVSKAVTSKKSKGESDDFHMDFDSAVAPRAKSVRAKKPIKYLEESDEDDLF

Bacteroides fragilis = experiment: Antibacterial activity against Bacteroides fragilis ATCC 25285 by CLSI method; format: functional
[21] = biological target: Voltage-gated inwardly rectifying potassium channel KCNH2 (Homo sapiens, UniProt Q12809); experiment: Inhibition of human ERG expressed in CHO cells by Q-patch clamp assay
Sequence of Voltage-gated inwardly rectifying potassium channel KCNH2 (Q12809 whole entry): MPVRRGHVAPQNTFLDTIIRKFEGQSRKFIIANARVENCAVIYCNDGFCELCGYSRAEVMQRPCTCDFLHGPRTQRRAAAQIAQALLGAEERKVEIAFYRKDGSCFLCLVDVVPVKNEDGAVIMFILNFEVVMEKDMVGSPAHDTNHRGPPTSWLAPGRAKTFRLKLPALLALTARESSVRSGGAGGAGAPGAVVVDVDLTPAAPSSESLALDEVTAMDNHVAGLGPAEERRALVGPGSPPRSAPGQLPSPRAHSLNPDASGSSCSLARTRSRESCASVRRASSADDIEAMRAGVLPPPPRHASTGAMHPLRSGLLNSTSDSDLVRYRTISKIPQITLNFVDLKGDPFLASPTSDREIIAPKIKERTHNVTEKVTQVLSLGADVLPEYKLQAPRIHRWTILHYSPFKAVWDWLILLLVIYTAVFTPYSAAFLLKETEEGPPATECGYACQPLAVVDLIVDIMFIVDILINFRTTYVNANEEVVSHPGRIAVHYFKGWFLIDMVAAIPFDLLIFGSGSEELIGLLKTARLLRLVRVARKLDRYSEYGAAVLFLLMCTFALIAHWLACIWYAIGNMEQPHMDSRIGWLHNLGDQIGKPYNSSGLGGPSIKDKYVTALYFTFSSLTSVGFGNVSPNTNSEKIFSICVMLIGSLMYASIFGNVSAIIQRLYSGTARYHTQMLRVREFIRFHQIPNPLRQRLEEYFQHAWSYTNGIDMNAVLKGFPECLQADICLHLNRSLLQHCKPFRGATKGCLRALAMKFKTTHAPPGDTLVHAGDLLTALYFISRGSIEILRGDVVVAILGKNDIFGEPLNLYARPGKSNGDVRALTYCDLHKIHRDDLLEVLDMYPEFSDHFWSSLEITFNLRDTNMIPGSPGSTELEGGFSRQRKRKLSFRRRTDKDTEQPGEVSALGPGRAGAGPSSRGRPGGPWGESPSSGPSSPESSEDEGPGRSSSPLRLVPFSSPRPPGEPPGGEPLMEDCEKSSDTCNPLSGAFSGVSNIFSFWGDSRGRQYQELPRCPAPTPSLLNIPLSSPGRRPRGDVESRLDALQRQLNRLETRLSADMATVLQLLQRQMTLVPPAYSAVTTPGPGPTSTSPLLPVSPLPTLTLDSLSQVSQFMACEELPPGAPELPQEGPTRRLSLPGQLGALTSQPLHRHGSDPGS

Fusobacterium nucleatum = experiment: Antibacterial activity against Fusobacterium nucleatum JCM8532 by CLSI method; format: functional
[22] = biological target: T1, Cytoplasmic tyrosine-protein kinase BMX (Homo sapiens) (UniProt P51813); experiment: Inhibition of recombinant BMX (unknown origin) at 10 uM using fluorescence-labeled peptide as substrate incubated for 15 mins followed by substrate addition and measured after 90 mins by electrophoretic mobility assay relative to control; details: time 105.0 min
T1 sequence (whole entry): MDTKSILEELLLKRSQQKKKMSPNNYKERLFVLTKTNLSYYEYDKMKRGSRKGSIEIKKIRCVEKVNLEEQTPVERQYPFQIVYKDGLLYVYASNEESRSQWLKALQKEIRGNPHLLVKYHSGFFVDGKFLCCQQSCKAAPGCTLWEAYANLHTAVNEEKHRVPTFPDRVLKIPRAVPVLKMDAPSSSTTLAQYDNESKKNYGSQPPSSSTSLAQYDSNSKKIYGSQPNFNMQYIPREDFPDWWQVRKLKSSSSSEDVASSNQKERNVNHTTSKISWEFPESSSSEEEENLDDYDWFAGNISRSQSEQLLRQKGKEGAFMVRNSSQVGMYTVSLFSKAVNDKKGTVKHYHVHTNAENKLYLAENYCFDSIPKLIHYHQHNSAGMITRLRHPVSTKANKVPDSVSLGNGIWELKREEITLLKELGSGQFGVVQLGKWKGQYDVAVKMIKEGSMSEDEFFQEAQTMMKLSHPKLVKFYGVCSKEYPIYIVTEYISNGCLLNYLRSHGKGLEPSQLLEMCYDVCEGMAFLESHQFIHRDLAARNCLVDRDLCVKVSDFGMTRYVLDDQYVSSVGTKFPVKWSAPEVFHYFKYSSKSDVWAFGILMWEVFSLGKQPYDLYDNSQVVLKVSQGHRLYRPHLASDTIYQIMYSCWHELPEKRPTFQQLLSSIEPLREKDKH

[23] = Half life in ICR mouse at 100 mg/kg, sc measured upto 24 hrs by LC-MS analysis; format: ADME, organism-based; details: in vivo
Streptococcus pneumoniae [24] = experiment: Antibacterial activity against genotype penicillin-resistant Streptococcus pneumoniae by CLSI method; format: functional
[25] = Cytotoxicity against human HepG2 cells assessed as reduction in cell viability at 50 uM incubated for 48 hrs by CCK-8 assay; details: HepG2 cells
[26] = AUC (0 to 24 hrs) in ICR mouse at 100 mg/kg, sc measured upto 24 hrs by LC-MS analysis; format: ADME, organism-based; parameters: route subcutaneous, dose 100 mg/kg, time 24 hrs; details: in vivo
Porphyromonas gingivalis = experiment: Antibacterial activity against Porphyromonas gingivalis JCM8525 by CLSI method; format: functional
Escherichia coli [27] = experiment: Antibacterial activity against Escherichia coli ATCC 25922 assessed as reduction in bacterial cell growth incubated for 18 hrs by CSLI based broth microdilution method; format: functional
Staphylococcus aureus [28] = experiment: Antibacterial activity against Staphylococcus aureus ATCC 29213 assessed as reduction in bacterial cell growth incubated for 18 hrs by CSLI based broth microdilution method; format: functional

For CNc1cc(F)cc2cc(C(=O)Nc3ccc(C(=O)O)cc3)c(=O)[nH]c12, the IC50 (DNA gyrase) was 0.00036 µM, the MIC (Staphylococcus aureus [1]) was 8 mg/L (≈ 22.5 µM) and the MIC (Escherichia coli [2]) was 0.015 mg/L. For the same molecule, the MIC (Escherichia coli [3]) was 16 mg/L (≈ 45 µM), the MIC (Enterococcus faecium [4]) was 0.03 mg/L (≈ 0.0844 µM) and the MIC (Enterococcus faecium [5]) was 0.015 mg/L (≈ 0.0422 µM). The MIC (Staphylococcus aureus [6]) was 4 mg/L (≈ 11.3 µM), the IC50 [7] was 0.219 µM and the Ratio (Escherichia coli [8]) was 4. For the same molecule, the Ratio IC50 [9] was 5, the MIC (Staphylococcus aureus [10]) was 8 mg/L (≈ 22.5 µM) and the MIC (Streptococcus anginosus) was 0.06 mg/L (≈ 0.169 µM). It also gave an MIC (Haemophilus influenzae) of 0.03 mg/L (≈ 0.0844 µM), an MIC (Enterococcus faecalis [11]) of 0.015 mg/L (≈ 0.0422 µM) and an MIC (Streptococcus pneumoniae [12]) of 0.03 mg/L (≈ 0.0844 µM). The MIC (Enterococcus faecalis [13]) was 0.015 mg/L (≈ 0.0422 µM).
Work on CNc1cc(F)cc2c(O)c(C(=O)Nc3ccc(C(=O)O)cc3)c(=O)[nH]c12 yielded a cytotoxicity at 48 h, 10 µM [14] of 7.93%, an IC50 (DNA gyrase) of 0.0011 µM and an MIC (Staphylococcus aureus [1]) of 0.25 mg/L (≈ 0.673 µM). It also gave a Cmax [15] of 12.4 µg/mL, an MIC50 (Staphylococcus aureus [16]) of 0.25 mg/L (≈ 0.673 µM) and an MIC90 (Staphylococcus aureus [16]) of 0.25 mg/L (≈ 0.673 µM). For the same molecule, the MIC (Clostridioides difficile) was 0.25 mg/L (≈ 0.673 µM), the Tmax [17] was 0.25 h and the MIC50 (Enterococcus) was 0.008 mg/L (≈ 0.0215 µM). It also gave an MIC90 (Enterococcus) of 0.015 mg/L (≈ 0.0404 µM), an MIC [18] of 0.06 mg/L (≈ 0.162 µM) and an MIC (Escherichia coli [3]) of 1 mg/L (≈ 2.69 µM). For the same molecule, the MIC (Enterococcus faecium [4]) was 0.008 mg/L (≈ 0.0215 µM), the MIC (Enterococcus faecium [5]) was 0.015 mg/L (≈ 0.0404 µM) and the MIC [19] was > 32 mg/L. For the same molecule, the MIC (Staphylococcus aureus [6]) was 0.25 mg/L (≈ 0.673 µM), the IC50 [7] was 0.0629 µM and the IC50 [20] was > 100 µM. For the same molecule, the MIC (Bacteroides fragilis) was 8 mg/L (≈ 21.5 µM), the IC50 [21] was > 30 µM and the MIC (Fusobacterium nucleatum) was 0.12 mg/L (≈ 0.323 µM). The inhibition [22] was 29%, the half-life [23] was 6.79 h and the MIC (Staphylococcus aureus [10]) was 0.5 mg/L (≈ 1.35 µM). For the same molecule, the MIC50 (Streptococcus pneumoniae [24]) was 0.03 mg/L (≈ 0.0808 µM), the MIC90 (Streptococcus pneumoniae [24]) was 0.06 mg/L (≈ 0.162 µM) and the MIC (Streptococcus anginosus) was 0.03 mg/L (≈ 0.0808 µM). For the same molecule, the MIC (Haemophilus influenzae) was ≤ 0.015 mg/L, the MIC (Enterococcus faecalis [11]) was 0.002 mg/L (≈ 0.00539 µM) and the cytotoxicity at 48 h, 50 µM [25] was 25.2%. It also gave an MIC (Streptococcus pneumoniae [12]) of 0.015 mg/L (≈ 0.0404 µM), an AUC(0-t) at 24 h [26] of 16 µg·h/mL and an MIC (Porphyromonas gingivalis) of 0.25 mg/L (≈ 0.673 µM). It also gave an MIC (Enterococcus faecalis [13]) of 0.002 mg/L (≈ 0.00539 µM).
In the case of CNc1cccc2cc(C(=O)Nc3ccc(C(=O)O)cc3)c(=O)[nH]c12, the MIC (Escherichia coli [2]) is reported as < 0.03 mg/L, the MIC (Escherichia coli [27]) is reported as 64 mg/L (≈ 190 µM) and the IC50 [7] is reported as 0.98 µM. It also gave an MIC (Staphylococcus aureus [28]) of 16 mg/L (≈ 47.4 µM).
